Results on eleven compounds are retold here after patent US8044052B2, “Biaryl ether urea compounds” (Pfizer Inc., priority 2006, dated 2011).

One series deals with T1, Human FAAH (Homo sapiens, UniProt O00519).
T1 construct: made in house
T1 sequence (O00519 1-579): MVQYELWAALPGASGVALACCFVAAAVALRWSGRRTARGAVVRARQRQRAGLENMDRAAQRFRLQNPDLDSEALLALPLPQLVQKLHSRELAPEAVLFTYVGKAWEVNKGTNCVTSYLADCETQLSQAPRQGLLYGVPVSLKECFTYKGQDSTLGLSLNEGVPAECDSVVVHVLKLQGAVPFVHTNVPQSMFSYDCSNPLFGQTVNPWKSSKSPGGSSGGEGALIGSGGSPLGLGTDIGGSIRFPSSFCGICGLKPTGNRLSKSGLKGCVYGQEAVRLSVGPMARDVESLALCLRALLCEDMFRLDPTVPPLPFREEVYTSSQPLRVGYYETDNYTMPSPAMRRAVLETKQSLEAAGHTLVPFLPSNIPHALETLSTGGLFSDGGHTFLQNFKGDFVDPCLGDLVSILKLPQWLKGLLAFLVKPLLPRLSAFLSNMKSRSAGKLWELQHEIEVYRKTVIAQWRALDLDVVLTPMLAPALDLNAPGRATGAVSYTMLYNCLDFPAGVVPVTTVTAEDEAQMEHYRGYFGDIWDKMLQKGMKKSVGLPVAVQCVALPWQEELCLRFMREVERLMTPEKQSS
Nature of the series: FAAH assay (glutamate dehydrogenase-coupled, oleamide substrate, absorbance at 340 nm). As to conditions: irreversible inhibition, 1-4 nM FAAH, pH 7.4, 30° C., 90 min; for kinact/KI: read-out: hFAAH kinact/Ki. Format: biochemical.

Broadly, the melting point is the temperature, or range, at which the solid turns liquid.

As for `Cc1ccc(NC(=O)N2CCC(=C(F)c3cccc(Oc4ccc(C(F)(F)F)cn4)c3)CC2)cn1` [Example 70, 4-(fluoro(3-(5-(trifluoromethyl)pyridin-2-yloxy)phenyl)methylene)-N-(6-methylpyridin-3-yl)piperidine-1-carboxamide], the melting point was in the range of 158 to 160 °C. In addition, on Human FAAH, the kinact/KI was determined as 4590 M⁻¹ s⁻¹.

Turning to `Cn1cc(NC(=O)N2CCC(=Cc3cccc(Oc4ccc(C(F)(F)F)cn4)c3)CC2)cn1` [Example 137, N-(1-methyl-1H-pyrazol-4-yl)-4-(3-{[5-(trifluoromethyl)pyridin-2-yl]oxy}benzylidene)piperidine-1-carboxamide], on Human FAAH, the kinact/KI is 1070 M⁻¹ s⁻¹.

Take `O=C(Nc1cn[nH]c1)N1CCC(=Cc2cccc(Oc3ccc(C(F)(F)F)cn3)c2)CC1` [Example 138, N-1H-pyrazol-4-yl-4-(3-{[5-(trifluoromethyl)pyridin-2-yl]oxy}benzylidene)piperidine-1-carboxamide]: the kinact/KI on Human FAAH amounted to 4300 M⁻¹ s⁻¹.

As for `Cc1cc(NC(=O)N2CCC(=Cc3cccc(Oc4ccc(C(F)(F)F)cn4)c3)CC2)n[nH]1` [Example 139, N-(5-methyl-1H-pyrazol-3-yl)-4-(3-{[5-(trifluoromethyl)pyridin-2-yl]oxy}benzylidene)piperidine-1-carboxamide], the kinact/KI at Human FAAH is 306 M⁻¹ s⁻¹.

Take `COc1ccc(NC(=O)N2CCC(=Cc3cccc(Oc4ccc(C(F)(F)F)cn4)c3)CC2)c(C)n1` [Example 140, N-(6-methoxy-2-methylpyridin-3-yl)-4-(3-{[5-(trifluoromethyl)pyridin-2-yl]oxy}benzylidene)piperidine-1-carboxamide]: on Human FAAH, the kinact/KI worked out at 837 M⁻¹ s⁻¹.

For `CCc1ccnc(NC(=O)N2CCC(=Cc3cccc(Oc4ccc(C(F)(F)F)cn4)c3)CC2)c1` [Example 141, N-(4-ethylpyridin-2-yl)-4-(3-{[5-(trifluoromethyl)pyridin-2-yl]oxy}benzylidene)piperidine-1-carboxamide], the kinact/KI at Human FAAH was 117 M⁻¹ s⁻¹.

On to `O=C(Nc1ccc(O)nc1)N1CCC(=Cc2cccc(Oc3ccc(C(F)(F)F)cn3)c2)CC1` [Example 142, N-(6-hydroxypyridin-3-yl)-4-(3-{[5-(trifluoromethyl)pyridin-2-yl]oxy}benzylidene)piperidine-1-carboxamide], for which the kinact/KI on Human FAAH came to 246 M⁻¹ s⁻¹.

As to `O=C(Nc1cc(O)[nH]n1)N1CCC(=Cc2cccc(Oc3ccc(C(F)(F)F)cn3)c2)CC1` [Example 143, N-(5-hydroxy-1H-pyrazol-3-yl)-4-(3-{[5-(trifluoromethyl)pyridin-2-yl]oxy}benzylidene)piperidine-1-carboxamide], the kinact/KI on Human FAAH came out at 412 M⁻¹ s⁻¹.

Regarding “N-(pyridazin-3-yl)-4-(3-{[phenyl-2-yl]oxy}benzylidene)piperidine-1-carboxamide [Example 32]”, the “hFAAH kinact/Ki” value at Human FAAH came to 973 M⁻¹ s⁻¹.

In the case of “N-(pyridin-3-yl)-4-(3-[{phenyl-2-yl]oxy}benzylidene)piperidine-1-carboxamide [Example 31]”, the “hFAAH kinact/Ki” value at Human FAAH amounted to 931 M⁻¹ s⁻¹.

Consider “N-pyridin-4-yl-4-(3-{[5-(trifluoromethyl)pyridin-2-yl]oxy}benzylidene)piperidine-1-carboxamide trifluoroacetate [Example 76]”, for which the “hFAAH kinact/Ki” value on Human FAAH worked out at 2390 M⁻¹ s⁻¹.
